Measurements: patent US20140193383A1, “USE OF LACTOBACILLUS KEFIRANOFACIENS AS A PROBIOTIC AND A SYNBIOTIC” (Technologies Biolactis Inc., priority 2005, published 2014)

What was measured:
[1] = system: poloxamer 407 induced hyperlipidemia; assay: Poloxamer 407 rat model of hyperlipidemia (strains); type: in vivo, Wistar rats
Description: (§1) The different bacterial strains were tested for their capacity to regulate blood lipid levels in a rat model of hyperlipidemia. […] Wistar rats injected i.p. with poloxamer 407 rapidly develop severe but transient hyperlipidemia. […] The hypo-lipidemic effect of L. kefiranofaciens strains is evaluated in groups of rats pre-treated orally for 7 days before injection of poloxamer. Blood lipids were measured before injection and at 24 and 72 hours following induction of hyperlipidemia. Plasma levels of triglycerides, and cholesterol (LDL) were evaluated.
Group 1: 4 rats, gavage saline Group 2: 4 rats, gavage niacin (100 mg/kg) Group 3: 4 rats, gavage R2C2 (1×10^8 cfu/ml) Group 4: 4 rats, gavage INIX (1×10^8 cfu/ml) Group 5: 4 rats, gavage BioSP (1×10^8 cfu/ml) Group 6: 4 rats, gavage K2 (1×10^8 cfu/ml)

[2] = system: poloxamer 407 induced hyperlipidemia; assay: Anti-triglyceridemia potential, poloxamer 407 rats (Example 6); type: in vivo, female Wistar rats
Description: For the experiment, female Wistar rats, 7 weeks old, weighing 125-150 g. were purchased from Charles River Canada. Rats were randomized into 4 different groups, each composed of at least 6 animals. […] They were housed under specific pathogen-free conditions and maintained in a […] light/dark cycle. All animals consumed standard diet and received water ad libitum. MPM was in a lyophilized form and prepared daily by adding 80% of water and mixed to create back a yoghurt-like product. The bacterial strain Lactobacillus […] was routinely cultured in MRS broth (BD Biosciences, Mississauga, ON, Canada) at 37° C. for a period of 24 h. Bacteria were then pelleted by centrifugation at 4000 rpm for 8 minutes and re-suspended at a concentration of 10^9 cells/mL in sterile PBS (Invitrogen). Niacin was dissolved in water in order for the rats to receive a dose of 100 mg of treatment per kg. […] The poloxamer 407 solution for intraperitoneal (i.p.) injection was prepared by combining the agent with sterile water and refrigerating overnight to facilitate dissolution of the polymer by the cold method of incorporation. […] Approximately 1 mL of blood was collected from the jugular vein in 3 mL syringes and immediately transferred in lithium-heparinized plastic tubes (Sarstedt, Montreal, QC, Canada). Tubes were lightly shaken for 10 seconds, and then centrifuged to allow separation of the plasma. Plasma samples were collected in clean 1.5 mL eppendorf and immediately frozen at -80° C. until the time of analysis. For blood collection, each animal was anesthetized using isoflurane (AErrane, Baxter Corporation, Deerfield, Ill., USA). […] Animals were sacrificed after the last blood collection by the CO2 asphyxia method. […] Samples from all experimental groups were analyzed for total cholesterol and triglycerides. All analysis were performed in an independent laboratory (Laboratoire medical Biron, 4105-[…] Blvd, Brossard, Québec, Canada, J4Y 2P4), ISO 9002 certified, offering a reliable plasma lipids quantification service.

[3] = system: poloxamer 407 induced hyperlipidemia; assay: Model of hyperlipidemia, poloxamer 407 (Example 8a); type: in vivo, Wistar rats
Description: as §1, with “whey fermented with L. kefiranofaciens R2C2 was” for “different bacterial strains were”, “triglycerides, cholesterol, HDL, LDL” for “triglycerides,”, “glucose” for “cholesterol (LDL)”
Group 1: 4 rats, gavage saline Group 2: 4 rats, gavage niacin (100 mg/kg) Group 3: 4 rats, gavage whey fermented with L. kefiranofaciens R2C2 (1 ml per gavage)

[4] = system: diet-induced hyperlipidemia and weight gain; assay: Model of hypertriglyceridemia and obesity (fructose 10% in drinking water); type: in vivo, Wistar rats
Description: The whey fermented with L. kefiranofaciens […] was tested for its capacity to regulate weight gain and blood lipid levels in a diet-induced rat model of hyperlipidemia. This protocol allows a comparison to niacin (vitB3) in regulating diet-induced hyperlipidemia in rats. […] The hypo-lipidemic effects of the whey fermented with L. kefiranofaciens […] during the fructose treatment period were evaluated. Blood samples are collected before the start of fructose treatment, and once a week for 4 weeks during the induction of hyperlipidemia. Serum levels of triglycerides were measured.

[5] = system: visceral fat in Spontaneous Hypertensive Rat; assay: Weight and fat management, SHR model (visceral fat); type: in vivo, SHR rats; conditions: once a day for 56 days, saline 100
Description: The whey fermented with L. kefiranofaciens R2C2 was tested for its capacity to regulate fat distribution as well as weight gain in the Spontaneous Hypertensive Rat model and in ovariectomized rats. The SHR model was used as previously described but used to monitor the levels of visceral fat accumulating in the belly following. The animals were fed with 1 ml of whey fermented with L. kefiranofaciens R2C2 (20% solid) once a day for 56 days (P.O. q1×56)
Group 1: 12 rats, gavage saline Group 2: 12 rats, gavage niacine (100 mg/kg) Group 3: 12 rats, gavage whey fermented with L. kefiranofaciens R2C2 (1 ml per gavage)

[6] = system: DSS-induced intestinal inflammation; assay: Effect of live, pasteurized or irradiated bacteria on DSS intestinal inflammation; type: in vivo, C57BL/6 mice
Description: C57BL/6 mice were treated by gavage (p.o.) with 10^8 cfu/ml of different L. kefiranofaciens strains once per day for the duration of the experiment. Animals received the strains R2C2 or BioSP as live, pasteurized or irradiated bacteria. Intestinal inflammation was induced by the addition of DSS (2.5%) to the drinking water for 8 days and then replaced with fresh water for 8 days to evaluate the rapidity of recovery process from inflammation for the different treatment groups. The level and progression of inflammation was evaluated through measurements of weight variation and combined scores of diarrhea and occult blood. Colon length and myeloperoxidase (MPO) activity in the colon were also evaluated at the end of the experiment.

[7] = system: oxazolone-induced atopic contact dermatitis; assay: Atopic contact dermatitis, prophylactic protocol (MPM); type: in vivo, CD-1 mice; conditions: Protection against atopic contact dermatitis (day 9); Controls 0.45
Source text: (§2) A murine model of atopic contact dermatitis induced with oxazolone in mice was used to determine the anti-inflammatory effect of the whey fermented with Lactobacillus kefiranofaciens […]. This model of inflammation has proven to be a sensitive and useful tool to determine efficacy and potency of several anti-inflammatory and immunosuppressive drugs used in dermatological disorders like psoriasis for example. Drugs like glucocorticoids are commonly used to relieve skin and joint inflammation. Whey fermented with […] administered orally either in a prophylactic (Table 24) or therapeutic fashion (Table 23) reduced the inflammation as shown with a reduction of around 30% of ear and thickness in both cases. […] The ear thickness of the mice was measured every day. The prophylactic anti-inflammatory potential of MPM (patent PCT/CA2002/01988) was evaluated firstly by the administration of MPM, 7 days prior to sensitization. […] Dermatitis was induced as described previously and ear thickness was measured every day. The therapeutic anti-inflammatory potential of MPM was evaluated by the administration of MPM only after the first challenge. […] The mouse atopic contact dermatitis was done as described previously and ear thickness was measured every day. The mice's weight was measured twice a week.

[8] = system: oxazolone-induced atopic contact dermatitis; assay: Atopic contact dermatitis, therapeutic protocol (MPM); type: in vivo, CD-1 mice; conditions: Treatment of atopic contact dermatitis (day 17); Controls 0.55
Source text: as §2

[9] = system: oxazolone-induced atopic contact dermatitis; assay: Atopic contact dermatitis, therapeutic protocol (R2C2); type: in vivo, mice
Source text: A murine model of atopic contact dermatitis induced with oxazolone in mice was used to determine the anti-inflammatory effect of the whey fermented with Lactobacillus kefiranofaciens […]. This model of inflammation has proven to be a sensitive and useful tool to determine efficacy and potency of several anti-inflammatory and immunosuppressive drugs used in dermatological disorders like psoriasis for example. Drugs like glucocorticoids are commonly used to relieve skin and joint inflammation. Whey fermented with […] administered orally either in a prophylactic (Table 24) or therapeutic fashion (Table 23) reduced the inflammation as shown with a reduction of around 30% of ear and thickness in both cases. In more details, the murine model of atopic contact dermatitis was based on those firstly described by Garrigue et al. (Contact Dermatitis., 30(4):[…], 1994) and modified as follows: the CD-1 mice's abdomen were removed of hair and the sensitization phase was done with the application of 100 microliters of oxazolone 5% in acetone on the abdomen (Sigma-Aldrich, Oakville, On). After 4 days, the elicitation phase (first challenge) was done with application of 50 microliters of oxazolone 5% in acetone on the right ear (25 microliters each side of the ear). The second challenge was done 7 days after the first challenge with the same procedure. The ear thickness of the mice was measured every day. The therapeutic anti-inflammatory potential of […] was evaluated in an animal model of atopic contact dermatitis by feeding the bacterial suspension after the first challenge. The protective effect of […] was compared to that of hydrocortisone, because of its well-known anti-inflammatory effects on dermatitis.

[10] = system: systolic blood pressure of SHR rats; assay: Anti-hypertensive potential in SHR rats (tail-cuff SBP); type: in vivo, SHR female rats
Description: Anti-hypertensive potential of whey fermented with […] (MPM) was evaluated by using SHR female rats (6 weeks old). 12 rats were randomized according to their weight in each treatment group. They were housed under specific pathogen-free conditions and maintained in a 12 hour-light/dark cycle. All animals consumed standard diet and received water ad libitum. Groups were forced-fed daily either 1 mL of water (placebo group), MPM (5 mL/kg) or Enalapril-malate (10 mg/kg), because of its well-known hypotensive effects. Systolic blood pressure (SBP) was measured weekly by the tail-cuff method with the automated RTBP2000 Tail Blood Pressure system (Kent Scientific, Torrington, Conn., USA). Data collections were made weekly and an average of 3 measurements was taken as initial mean SBP. Data was acquired and analysed with Biopac Student Lab Pro® software version 3.6.1 (Biopac System, Goleta, Calif., USA). […] A steady decrease of the SBP was observed every week with a maximum change of at least 25% at week 4 for the animals forced-fed with MPM.

[11] = plasma, before poloxamer, saline 1.55

## O=C(O)c1cccnc1 [Niacin, niacin]
[1]; before poloxamer
  Plasma triglycerides after pre-treatment of 7 days: plasma triglycerides were reduced
[1]; [11]
  Triglycerides (mmol/L) after 7 days of treatment: 0.97 mmol/L
[1]; plasma, saline 95.42
  Triglycerides (mmol/L) 72 h post-induction of hyperlipidemia: 69.96 mmol/L
[1]; rat, in vivo
  Plasma triglycerides 72 hours after induction of hyperlipidemia: most important reduction
[2]; cholesterol, Controls 100
  CH levels (72 hours post induction of hyperlipidemia) (%): 33%
[2]; plasma, before poloxamer 407, Controls 1.83
  Triglyceride levels (7-day treatment): 1.00 mmol/L
[2]; plasma, Controls 95.42
  Triglyceride levels (72 hours post induction of hyperlipidemia): 66.96 mmol/L
[3]; [11]
  Triglycerides (mmol/L) after 7 days of treatment: 0.97 mmol/L
[3]; plasma, saline 97.72
  Triglycerides (mmol/L) 72 h post-induction of hyperlipidemia: 69.96 mmol/L
[3]; rat, in vivo
  Plasma triglycerides after pre-treatment of 7 days: plasma triglycerides were reduced
[4]; Day 0, saline 100
  Levels of triglyceride, % relative to saline on day 0: 100%
[4]; Day 7 of fructose, saline 260
  Levels of triglyceride, % over saline group: 150%
[4]; Day 21 of fructose, saline 270
  Levels of triglyceride, % over saline group: 160%
[5]
  % of animals with visceral fat: 70%

## Nc1ccc(O)c(C(=O)O)c1 [5-ASA]
[6]; Day 5, DSS+saline −1.83
  Weight loss (%) associated with 8 days of DSS exposure: −3.21%
[6]; Day 5 of DSS, DSS+saline 2.25
  Combined occult blood and diarrhea scores (scale of 8): 1.75
[6]; Day 6, DSS+saline −5.23
  Weight loss (%) associated with 8 days of DSS exposure: −3.64%
[6]; Day 6 of DSS, DSS+saline 4.50
  Combined occult blood and diarrhea scores (scale of 8): 3.75
[6]; Day 7, DSS+saline −8.79
  Weight loss (%) associated with 8 days of DSS exposure: −5.90%
[6]; Day 7 of DSS, DSS+saline 6.50
  Combined occult blood and diarrhea scores (scale of 8): 4.25
[6]; Day 8, DSS+saline −13.5
  Weight loss (%) associated with 8 days of DSS exposure: −8.07%
[6]; Day 8 of DSS, DSS+saline 6.50
  Combined occult blood and diarrhea scores (scale of 8): 5.50
[6]; colon, post-mortem, 8 days DSS and 8 days of recovery, no DSS 0.056, DSS+saline 0.226
  MPO activity (U/g of tissue): 0.043 U/g of tissue
[6]; live, pasteurized or irradiated bacteria, 5-ASA comparator
  Protective effect on DSS inflammation: comparable protective effects

## C[C@]12CCC(=O)C=C1CC[C@@H]1[C@@H]2[C@@H](O)C[C@@]2(C)[C@H]1CC[C@]2(O)C(=O)CO [Hydrocortisone, hydrocortisone]
[7]
  Ear thickness (mm): 0.30 mm
[8]
  Ear thickness (mm): 0.29 mm
[9]; Day 15, Controls 0.26
  ear thickness (mm): 0.18 mm
[9]; Day 17, Controls 0.39
  ear thickness (mm): 0.27 mm
[9]; Day 22, Controls 0.34
  ear thickness (mm): 0.15 mm

## CCOC(=O)[C@H](CCc1ccccc1)N[C@@H](C)C(=O)N1CCC[C@H]1C(=O)O [Enalapril, Enalapril-malate]
[10]; Week 0, Controls 185
  Systolic blood pressure (mm Hg): 184 mm Hg
[10]; Week 1, Controls 181
  Systolic blood pressure (mm Hg): 165 mm Hg
[10]; Week 2, Controls 184
  Systolic blood pressure (mm Hg): 156 mm Hg
[10]; Week 3, Controls 183
  Systolic blood pressure (mm Hg): 154 mm Hg
[10]; Week 4, Controls 187
  Systolic blood pressure (mm Hg): 154 mm Hg
